According to US20050209157A1, “Short bioactive peptides and methods for their use” (priority 2001, published 2005):
Like-named read-outs stand apart in the source and are kept apart here. No end group written: not given here.

Columns and labels:
[1] = in vitro; assay type: cell-based, human; conditions: human, human red blood cells
[2] = in vitro; conditions: human, WI38 normal lung fibroblast cells
[3] = system: fungal; test: Presently preferred antifungal peptides, selected from the MIC/MBC data; assay type: cell-based; conditions: X = preferred
Description: The peptide's “length” is the number of amino acid residues in the sequence.

[4] = system: Escherichia coli ATCC 25922; test: Antimicrobial assay I, modified protocol (tryptic soy broth), MBC; conditions: minimum bactericidal concentration, Table 4
Description: The preparation of all media, stock solutions, and dilutions took place in a laminar flow hood to prevent contamination. Bacterial cells were freshly grown on antibiotic medium 2 agar slants (pH 7.0 at 25° C.). Bacteria were suspended and diluted in antibiotic medium 3 to about 10^4 cfu/ml and used as the inoculum. Sample solutions (100 μl/well) were added to plates according to the plate layout. Inoculum (100 μl/well) was added to achieve a final concentration of 5×10^3 cfu/ml. Negative controls received 100 μl saline and 100 μl growth medium. Positive controls received 100 μl saline and 100 μl inoculum. Bacterial plates were incubated at 37° C. for 24 hours.
However, the data for Table 4 were obtained with a modified protocol wherein the medium was tryptic soy broth, inocolum strength was approximately 10^4 CFU per ml, and values determined were minimum bactericidal concentrations (MBC) or minimum fungicidal concentrations (MFC).
MBC or MFC values are in μg/mL. E. coli is Escherichia coli ATCC accession number 25922; P. aerug is Pseudomonas aeruginosa ATCC accession number 27853, S. aur. is Stapholococcus aureus ATCC accession number 25923; Candida is Candida albicans ATCC accession number 10231.

[5] = system: Stapholococcus aureus ATCC 25923; test: as above; conditions: minimum bactericidal concentration, Table 4
[6] = system: Pseudomonas aeruginosa ATCC 27853; test: as above; conditions: minimum bactericidal concentration, Table 4
[7] = system: Candida albicans ATCC 10231; test: Antimicrobial assay I, modified protocol (tryptic soy broth), MFC; conditions: minimum fungicidal concentration, Table 4
[8] = system: S. epidermidis C621; assay type: cell-based, Staphylococcus epidermidis; conditions: mean of three; 16 to 20 hours at 35° C.
[9] = system: E. coli UB1005; assay type: cell-based, Escherichia coli; conditions: mean of three; 16 to 20 hours at 35° C.; in µg/mL
[10] = system: Staphylococcus aureus ATCC 6538; test: Antimicrobial assay I, MIC by OD measurement; assay type: cell-based; conditions: 37° C. for 24 hours, absorbance 620 nm
[11] = system: Pseudomonas aeruginosa ATCC 9027; test: Antimicrobial assay I, MIC by OD measurement; assay type: cell-based; conditions: 37° C. for 24 hours, absorbance 620 nm
[12] = system: WI38; conditions: MTT, 24 hours with peptide; for WI38 LD50: normal fibroblast line
[13] = system: S. pneumoniae C718; test: Antimicrobial assays II, NCCLS broth microdilution MIC; assay type: cell-based, Streptococcus pneumoniae; conditions: mean of three
[14] = system: P. aeruginosa; assay type: cell-based, Pseudomonas aeruginosa; conditions: P. aeruginosa H744; MIC of nalidixic acid with peptide at ¼ MIC
Outline: (§1)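 Efflux-mutant strains were tested with two-fold serial dilutions of chloramphenicol or nalidixic acid, alone and with peptide held at ¼ of its own MIC.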

[15] = system: P. aeruginosa H774; assay type: cell-based, Pseudomonas aeruginosa; conditions: P. aeruginosa H744; nalidixic acid + peptide at ¼ MIC; 0.5 or less = synergy
Outline: as §1

[16] = system: P. aeruginosa H374; assay type: cell-based, Pseudomonas aeruginosa; conditions: for MIC Cm-comb.: MIC of chloramphenicol with peptide at ¼ MIC; for MIC Nal-comb.: MIC of nalidixic acid with peptide at ¼ MIC; for FIC Index: 0.5 or less = synergy
Outline: as §1

[17] = system: S. pyogenes M76; test: Antimicrobial assays II, NCCLS broth microdilution MIC; assay type: cell-based, Streptococcus pyogenes; conditions: mean of three; 16 to 20 hours at 35° C.
[18] = system: S. typhimurium 14028S; assay type: cell-based, Salmonella typhimurium; conditions: mean of three; 16 to 20 hours at 35° C.; in µg/mL
[19] = system: S. aureus (MRSA); assay type: cell-based, Staphylococcus aureus; conditions: mean of three; 16 to 20 hours at 35° C.
[20] = system: S. pyogenes ATCC19615; test: Antimicrobial assays II, NCCLS broth microdilution MIC; assay type: cell-based, Streptococcus pyogenes; conditions: mean of three, in µg/mL
[21] = system: P. aeruginosa H374; assay type: cell-based, Pseudomonas aeruginosa; conditions: mean of three; 16 to 20 hours at 35° C.
[22] = system: S. pneumoniae C719; test: Antimicrobial assays II, NCCLS broth microdilution MIC; assay type: cell-based, Streptococcus pneumoniae; conditions: mean of three, in µg/mL
[23] = system: PC3; test: Anti-cancer assay, MTT, LD50; assay type: cell-based; conditions: 24 hours with peptide, prostate adenocarcinoma
Description: (§2) Numbers are LD50 values (μg/mL).

[24] = system: HeLaS3; test: Anti-cancer assay, MTT, LD50; assay type: cell-based; conditions: 24 hours with peptide, cervical carcinoma
Description: as §2

[25] = system: H1299; test: Anti-cancer assay, MTT, LD50; assay type: cell-based; conditions: 24 hours with peptide, lung large cell carcinoma
Description: as §2

[26] = system: BMKC; test: Anti-cancer assay, MTT, LD50; assay type: cell-based; conditions: BMKC cloned melanoma line, 24 hours with peptide
Description: as §2

[27] = system: MCF7; test: Anti-cancer assay, MTT, LD50; assay type: cell-based; conditions: MCF7 breast adenocarcinoma line, MTT, 24 hours with peptide
Description: as §2

[28] = system: SW480; test: Anti-cancer assay, MTT, LD50; assay type: cell-based; conditions: SW480 colon adenocarcinoma line, 24 hours with peptide
Description: as §2

[29] = system: P. acne ATCC 6919; test: Antimicrobial assays II, NCCLS broth microdilution MIC; assay type: cell-based, Propionibacterium acnes; conditions: mean of three, in µg/mL
[30] = system: human red blood cells (RBC); test: in vitro; assay type: cell-based; conditions: hemolytic assay, concentration at 50% hemolysis, 1 hour at 37° C.
[31] = system: yeast (Saccharomyces cerevisiae); test: Antimicrobial assay I, yeast assay in RPMI 1640; assay type: cell-based; conditions: RPMI 1640 media
[32] = chloramphenicol + peptide at ¼ MIC
[33] = nalidixic acid + peptide at ¼ MIC, FIC=0.25+MIC comb/MIC alone

## VALALKALKKLLKKLKKLAKKAL-NH2 [compound 510]
[1]; pH 7, Table 26, valine substitution, read-out: Hemolysis RBC LD50
  HC50 at 1 h: 10 µg/mL
[2]; WI-38 LD50, Table 26, valine substitution
  CC50 at 24 h: 77 µg/mL
[3]
  Anti-fungal (preferred peptide): X (Preferred antifungal peptides can be selected as having MIC or MBC values of less than or equal to about 25 μg/ml)

## FAKKLAKKLAKAL-NH2 [compound 74]
[4]
  MBC E. coli A.25922: >55 µg/mL
[5]
  MBC S. aur A.25923: >55 µg/mL
[6]
  MBC P. aerug A.27853: 50 µg/mL
[7]
  MFC Candida A.10231: >55 µg/mL
[3]
  Anti-fungal (preferred peptide): X (Preferred antifungal peptides can be selected as having MIC or MBC values of less than or equal to about 25 μg/ml)

## FALKALKKAL-NH2 [compound 170]
[4]
  MBC E. coli A.25922: 25 µg/mL
[5]
  MBC S. aur A.25923: 150 µg/mL
[6]
  MBC P. aerug A.27853: >250 µg/mL
[7]
  MFC Candida A.10231: 25 µg/mL
[3]
  Anti-fungal (preferred peptide): X (Preferred antifungal peptides can be selected as having MIC or MBC values of less than or equal to about 25 μg/ml)

## FALALKALKKLKKALKKAL-NH2 [compound 27]
[4]
  MBC E. coli A.25922: 10 µg/mL
[5]
  MBC S. aur A.25923: 8 µg/mL
[6]
  MBC P. aerug A.27853: 8 µg/mL
[7]
  MFC Candida A.10231: >50 µg/mL
[3]
  Anti-fungal (preferred peptide): X (Preferred antifungal peptides can be selected as having MIC or MBC values of less than or equal to about 25 μg/ml)

## FAKLLAKLAK-NH2 [compound 123]
[4]
  MBC E. coli A.25922: 40 µg/mL
[5]
  MBC S. aur A.25923: INACT
[6]
  MBC P. aerug A.27853: INACT
[7]
  MFC Candida A.10231: 25 µg/mL
[3]
  Anti-fungal (preferred peptide): X (Preferred antifungal peptides can be selected as having MIC or MBC values of less than or equal to about 25 μg/ml)

## FALALKLAKKAL-NH2 [compound 167]
[4]
  MBC E. coli A.25922: 25 µg/mL
[5]
  MBC S. aur A.25923: 10 µg/mL
[6]
  MBC P. aerug A.27853: >250 µg/mL
[7]
  MFC Candida A.10231: 25 µg/mL
[3]
  Anti-fungal (preferred peptide): X (Preferred antifungal peptides can be selected as having MIC or MBC values of less than or equal to about 25 μg/ml)

## FAKLLAKALKKFL-NH2 [compound 118]
[4]
  MBC E. coli A.25922: 8 µg/mL
[6]
  MBC P. aerug A.27853: 25 µg/mL
[3]
  Anti-fungal (preferred peptide): X (Preferred antifungal peptides can be selected as having MIC or MBC values of less than or equal to about 25 μg/ml)

## FAKKLAKKLKKLAKLALAK-NH2 [P41]
[8]
  S. epidermidis C621 MIC: 4 µg/mL
[9]
  E. coli UB1005 MIC: 2
[1]; pH 7, hemolytic assay, concentration at 50% hemolysis, 1 hour at 37° C., read-out: LD50
  HC50 at 1 h: 40 µg/mL
[10]
  staph6538 (MIC): 10 µg/mL
[11]
  paerug9027 (MIC): 10 µg/mL
[12]
  WI38 LD50: 175 µg/mL
[13]
  S. pneumoniae MIC: 64 µg/mL
[14]
  MIC Nal-comb.: 624 µg/mL
[15]
  FIC Index: 1.25
[16]
  MIC Cm-comb.: 16 µg/mL
  MIC Nal-comb.: 5000 µg/mL
[16]; [32]
  FIC Index: 1.25
[16]; [33]
  FIC Index: 1.25
[2]; LD50 WI38, WI38 normal lung fibroblast line, MTT, 24 hours with peptide
  CC50 at 24 h: 175 µg/mL
[17]
  S. pyogenes M76 MIC: 8 µg/mL
[18]
  S. typhimurium 14028S MIC: 4
[19]
  S. aureus (MRSA) MIC: 64 µg/mL
[20]
  S. pyogenes MIC: 8
[21]
  P. aeruginosa H374 MIC: 4 µg/mL
[22]
  S. pneumoniae MIC: 32
[23]
  PC3 LD50: 140 µg/mL
[24]
  HeLaS3 LD50: 185 µg/mL
[25]
  H1299 LD50: 245 µg/mL
[26]
  LD50 BMKC: 290 µg/mL
[27]
  LD50 MCF7: 98 µg/mL
[28]
  LD50 SW480: 120 µg/mL
[29]
  P. acne MIC: 4

## FALALKAKKL-NH2 [compound 182]
[3]
  Anti-fungal (preferred peptide): X (Preferred antifungal peptides can be selected as having MIC or MBC values of less than or equal to about 25 μg/ml)

## CC(C)C[C@H](NC(=O)[C@H](C)NC(=O)[C@H](CCCCN)NC(=O)[C@H](CC(C)C)NC(=O)[C@H](C)NC(=O)[C@H](CC(C)C)NC(=O)[C@H](C)NC(=O)[C@H](CC(C)C)NC(=O)[C@H](CCCCN)NC(=O)[C@H](C)NC(=O)[C@H](CC(C)C)NC(=O)[C@H](CCCCN)NC(=O)[C@H](CCCCN)NC(=O)[C@H](C)NC(=O)[C@H](CC(C)C)NC(=O)[C@H](CCCCN)NC(=O)[C@H](CCCCN)NC(=O)[C@H](CC(C)C)NC(=O)[C@H](CCCCN)NC(=O)[C@H](CCCCN)NC(=O)[C@H](C)NC(=O)[C@H](CC(C)C)NC(=O)[C@H](CCCCN)NC(=O)[C@H](CCCCN)NC(=O)[C@H](C)NC(=O)[C@@H](N)Cc1ccccc1)C(=O)N[C@@H](C)C(=O)N[C@@H](CC(C)C)C(=O)N[C@@H](CCCCN)C(=O)N[C@@H](C)C(=O)O [compound 100]
[3]
  Anti-fungal (preferred peptide): X (Preferred antifungal peptides can be selected as having MIC or MBC values of less than or equal to about 25 μg/ml)

## FAKLAKKLL-NH2 [P60]
[8]
  S. epidermidis C621 MIC: 4 µg/mL
[30]
  LD50: > (> indicates greater than 1000)
[10]
  staph6538 (MIC): 200 µg/mL
[11]
  paerug9027 (MIC): 100 µg/mL
[12]
  WI38 LD50: > (> indicates greater than 1000)
[12]; WI38 normal lung fibroblast line
  LD50 WI38: > (> indicates greater than 1000)
[13]
  S. pneumoniae MIC: 128 µg/mL
[14]
  MIC Nal-comb.: 624 µg/mL
[15]
  FIC Index: 1.25
[16]
  MIC Cm-comb.: 4 µg/mL
  MIC Nal-comb.: 1250 µg/mL
[16]; [32]
  FIC Index: 0.5
[16]; [33]
  FIC Index: 0.5
[17]
  S. pyogenes M76 MIC: 8 µg/mL
[19]
  S. aureus (MRSA) MIC: 32 µg/mL
[20]
  S. pyogenes MIC: 8
[22]
  S. pneumoniae MIC: >128
[23]
  PC3 LD50: > (> indicates greater than 1000)
[24]
  HeLaS3 LD50: > (> indicates greater than 1000)
[25]
  H1299 LD50: > (> indicates greater than 1000)
[26]
  LD50 BMKC: > (> indicates greater than 1000)
[27]
  LD50 MCF7: > (> indicates greater than 1000)
[28]
  LD50 SW480: > (> indicates greater than 1000)
[29]
  P. acne MIC: 4
[31]
  yeast (MIC or MFC): 200 µg/mL
